The values that follow come from patent publication US20110052674A1, “ANGIOTENSIN II RECEPTOR BLOCKER DERIVATIVES” (MERCK SHARP & DOHME CORP., priority 2008, published 2011).

In brackets after ≈: the same amount, converted by molar mass.

Data set [1] has as its system isolated rabbit thoracic aorta preparations. Kind of data set: Studies on vascular tone: vasorelaxation in isolated rabbit thoracic aorta preparations. Format: cell-based. The note with it: vasorelaxation of rabbit aortic rings precontracted with noradrenaline 1 μM, functional endothelium; for EC50: Oryctolagus cuniculus, read-out: EC50 (μM) ± sem. The protocol:
The ability of ARB nitroderivatives to induce vasorelaxation in comparison to native ARBs, was tested in vitro in isolated rabbit thoracic aorta preparations (Wanstall J. C. et al., Br. J. Pharmacol., 134:463-472, 2001). Male New Zealand rabbits were anaesthetized with thiopental-Na (50 mg/kg, iv), sacrificed by exsanguinations and then the thorax was opened and the aorta dissected. Aortic ring preparations (4 mm in length) were set up in physiological salt solution (PSS) at 37° C. in small organ chambers (5 ml). The composition of PSS was (mM): NaCl 130, NaHCO3 14.9, KH2PO4 1.2, MgSO4 1.2, HEPES 10, CaCl2, ascorbic acid […] and glucose […] (95% O2/5% CO2; pH 7.4). Each ring was mounted under 2 g passive tension. Isometric tension was recorded with a Grass transducer (Grass FT03) attached to a BIOPAC MP150 System. Preparations were allowed to equilibrate for 1 h, and then contracted submaximally with noradrenaline (NA, 1 μM) and, when the contraction was stable, acetylcholine (ACh, 10 μM) was added. A relaxant response to ACh indicated the presence of a functional endothelium. […] When a stable precontraction was reached, a cumulative concentration-response curve to either of the vasorelaxant agents was obtained in the presence of a functional endothelium. Each arterial ring was exposed to only one combination of inhibitor and vasorelaxant. Moreover, the effect of the soluble guanylyl cyclase inhibitor ODQ (1-H-(1,2,4)-oxadiazol(4,3-a)quinoxalin-1-one) on vasorelaxation elicited by the compounds was examined preincubating the aortic rings with ODQ (10 μM) for 20 min.
Responses to relaxing agents are expressed as a percentage of residual contraction and plotted against concentration of test compound. EC50 values (where EC50 is the concentration producing 50% of the maximum relaxation to the test compound) were interpolated from these plots. During the experimental period, the plateau obtained with NA was stable without significant spontaneous loss of contraction in the aortic rings.
Furthermore, in experiments performed in the presence of ODQ (10 μM), the vasorelaxant responses to tested compounds were inhibited.

The nature of data set [2]: Solubility test in PEG 400/H2O 7/3. Format: physicochemical. To be noted: PEG 400/H2O 7/3, aqueous with cosolvent or surfactant or cyclodextrin, thermodynamic from solid; PEG400/H2O 70:30, 5.0 mg in 1 ml, mixed 1 hour, filtered; read-out: Solubility PEG400/H2O 70:30 (mg/ml) target 5 mg/ml. The procedure: The solubility of the tested compounds in PEG 400/H2O 7/3 was evaluated using a standard curve constructed of six calibration points by plotting the peak areas of the compounds of the invention versus the concentration.
Test solution: 5.0 mg of the nitroderivative were dissolved in 0.7 ml of PEG 400 in a glass volumetric flask and 0.3 ml of water were added. The solution was mixed for 1 hour and filtered through 0.45 μm Acrodisc filter.

Data set [3] relates to spontaneously hypertensive rats (SHRs). As to the kind of experiment: Antihypertensive activity in vivo in conscious spontaneously hypertensive rats. Further details: species or system rat. To be noted: SHR, 10 mpk po single dose, delta vs baseline, telemetry (EXP 3174: tail-cuff method). The protocol:
The ability of the compounds of the invention to decrease blood pressure was evaluated in conscious spontaneously hypertensive rats (SHRs). SHRs (250-300 g) received a single oral dose of EXP 3174 or the corresponding nitroderivative. Systolic blood pressure (SBP) and heart rate were monitored by telemetry for 24 hours after dosing. SBP was evaluated before (baseline) and after (i.e. 6, 24 hours) treatment by oral administration of the compounds. The data were processed both as the absolute value or as a delta between the absolute value and its own baseline.
The Dataquest IV telemetry system (Data Sciences International) was used for measurement of systolic pressure, diastolic pressure, mean arterial pressure, heart rate, and motor activity. The monitoring system consists of a transmitter (radio frequency transducer model TA11PA), receiver panel, consolidation matrix, and personal computer with accompanying software. Before the device was implanted, calibrations were verified to be accurate within ±3 mmHg. Rats were anesthetized with ketamine/xylazine/acepromazine, and the flexible catheter of the transmitter was surgically secured in the abdominal aorta just below the renal arteries. The transmitter was sutured subcutaneously. Rats were housed in individual cages after the operation. Each cage was placed over the receiver panel that was connected to the personal computer for data acquisition. The rats were unrestrained and free to move within their cages. Hemodynamic data were sampled every 2 minutes for 10 seconds.

Consider `CCCCc1nc(Cl)c(C(=O)N[C@@H](Cc2ccccc2)C(=O)OCCCCC(CO[N+](=O)[O-])O[N+](=O)[O-])n1Cc1ccc(-c2ccccc2-c2nnn[nH]2)cc1` (stereo in doubt) [EX. 9, (S)-(5,6-bis(nitrooxy)hexyl) 2-(1-((2′-(1H-tetrazol-5-yl)biphenyl-4-yl)methyl)-2-butyl-4-chloro-1H-imidazole-5-carboxamido)-3-phenylpropanoate], for which the half-maximal effective concentration (EC50) (usually the concentration giving half of the maximal effect) in data set [1] was 3.4 ± 0.8 µM. For the same molecule, the solubility at 1 h in data set [2] was found to be 4.9 mg/mL (≈ 6.2 mM).
Turning to `CCCCc1nc(Cl)c(C(=O)NCC(=O)OCc2ccc(CO[N+](=O)[O-])cc2)n1Cc1ccc(-c2ccccc2-c2nnn[nH]2)cc1` [(46), 4-(nitrooxymethyl)benzyl 2-(1-((2′-(2H-tetrazol-5-yl)biphenyl-4-yl)methyl)-2-butyl-4-chloro-1H-imidazole-5-carboxamido)acetate], the solubility at 1 h in data set [2] was 5.07 mg/mL (≈ 7.69 mM).
Take `CCOc1nc2cccc(C(=O)O)c2n1Cc1ccc(-c2ccccc2-c2nnn[nH]2)cc1` [Candesartan, reference compound]: in data set [1], the “EC50 (μM) ± sem” value is reported as “no effect”.
Take `CCCCc1nc(Cl)c(COC(=O)NCCOC(=O)CCCO[N+](=O)[O-])n1Cc1ccc(-c2ccccc2-c2nnn[nH]2)cc1` [EX. 1, 2-(((1-((2′-(1H-tetrazol-5-yl)biphenyl-4-yl)methyl)-2-butyl-4-chloro-1H-imidazol-5-yl)methoxy)carbonylamino)ethyl 4-(nitrooxy)butanoate]: the EC50 in data set [1] turned out to be 23.6 ± 3.9 µM. Besides, the solubility at 1 h in data set [2] turned out to be 4 mg/mL (≈ 6.24 mM).
For `CCCCc1nc(Cl)c(COC(=O)N[C@H](COC(=O)CCCO[N+](=O)[O-])Cc2ccccc2)n1Cc1ccc(-c2ccccc2-c2nnn[nH]2)cc1` [EX. 2, (S)-2-(((1-((2′-(1H-tetrazol-5-yl)biphenyl-4-yl)methyl)-2-butyl-4-chloro-1H-imidazol-5-yl)methoxy)carbonylamino)-3-phenylpropyl 4-(nitrooxy)butanoate] the same measures were 40.1 ± 2.7 µM and over 5 mg/mL.
On the same counts, the results for `CCCCc1nc(Cl)c(COC(=O)NCC(=O)OCCCCO[N+](=O)[O-])n1Cc1ccc(-c2ccccc2-c2nnn[nH]2)cc1` [EX. 3, 4-(nitrooxy)butyl 2-(((1-((2′-(1H-tetrazol-5-yl)biphenyl-4-yl)methyl)-2-butyl-4-chloro-1H-imidazol-5-yl)methoxy)carbonylamino)acetate] are 9.2 ± 4.1 µM and over 5 mg/mL.
As for `CCCCc1nc(Cl)c(COC(=O)N[C@@H](CCCCN)C(=O)OCCCCO[N+](=O)[O-])n1Cc1ccc(-c2ccccc2-c2nnn[nH]2)cc1` [EX. 4, 4-(nitrooxy)butyl 2-(((1-((2′-(1H-tetrazol-5-yl)biphenyl-4-yl)methyl)-2-butyl-4-chloro-1H-imidazol-5-yl)methoxy)carbonylamino)-6-aminohexanoate], the EC50 in data set [1] came to 46 ± 7.2 µM.
Turning to `CCCCc1nc(Cl)c(C(=O)NCC(=O)OCCCCO[N+](=O)[O-])n1Cc1ccc(-c2ccccc2-c2nnn[nH]2)cc1` [EX. 5, 4-(Nitrooxy)butyl 2-(1-((2′-(1H-tetrazol-5-yl)biphenyl-4-yl)methyl)-2-butyl-4-chloro-1H-imidazole-5-carboxamido)acetate], in data set [3], the “Δ Systolic blood pressure (mmHg) 6 hrs” value was −7 mmHg and the “Δ Systolic blood pressure (mmHg) 24 hrs” value is −11 mmHg. Further, in data set [1], the EC50 was 9.2 ± 2.5 µM. Further, the solubility at 1 h in data set [2] came to 4.2 mg/mL (≈ 6.87 mM).
For `CCCCc1nc(Cl)c(C(=O)N[C@@H](Cc2ccccc2)C(=O)OCCCCO[N+](=O)[O-])n1Cc1ccc(-c2ccccc2-c2nnn[nH]2)cc1` [EX. 6] the same measures were −12 mmHg, −13 mmHg, 14.2 ± 8 µM and over 5 mg/mL.
Regarding `CCCCc1nc(Cl)c(C(=O)N2CCC[C@H]2C(=O)OCCCCO[N+](=O)[O-])n1Cc1ccc(-c2ccccc2-c2nn[nH]n2)cc1` [EX. 7, (S)-4-(nitrooxy)butyl 1-(1-((2′-(2H-tetrazol-5-yl)biphenyl-4-yl)methyl)-2-butyl-4-chloro-1H-imidazole-5-carbonyl)pyrrolidine-2-carboxylate], the EC50 in data set [1] came out at 7.1 ± 1.9 µM. For the same molecule, the solubility at 1 h in data set [2] was over 5 mg/mL.
For `CCCCc1nc(Cl)c(C(=O)N[C@@H](CC(=O)OCCCCO[N+](=O)[O-])C(=O)OCCCCO[N+](=O)[O-])n1Cc1ccc(-c2ccccc2-c2nn[nH]n2)cc1` [EX. 8, (S)-bis(4-(nitrooxy)butyl) 2-(1-((2′-(2H-tetrazol-5-yl)biphenyl-4-yl)methyl)-2-butyl-4-chloro-1H-imidazole-5-carboxamido)succinate], the concentration giving a half-maximal response (EC50) in data set [1] was 10.4 ± 2.5 µM.
On to `CCCCc1nc(Cl)c(C(=O)N[C@@H](CCC(=O)OCCCCO[N+](=O)[O-])C(=O)OCCCCO[N+](=O)[O-])n1Cc1ccc(-c2ccccc2-c2nn[nH]n2)cc1` [EX. 10], for which, in data set [3], the “Δ Systolic blood pressure (mmHg) 6 hrs” value is given as −6 mmHg and the “Δ Systolic blood pressure (mmHg) 24 hrs” value is given as −11 mmHg. For the same molecule, in data set [1], the EC50 was determined as 5.4 ± 1.8 µM.
With `CCCCc1nc(Cl)c(C(=O)NCC(=O)NCCCCO[N+](=O)[O-])n1Cc1ccc(-c2ccccc2-c2nnn[nH]2)cc1` [EX. 11, 4-(2-(1-((2′-(1H-tetrazol-5-yl)biphenyl-4-yl)methyl)-2-butyl-4-chloro-1H-imidazole-5-carboxamido)acetamido)butyl nitrate], in data set [3], the “Δ Systolic blood pressure (mmHg) 6 hrs” value is given as −6 mmHg and the “Δ Systolic blood pressure (mmHg) 24 hrs” value was −17 mmHg. The EC50 in data set [1] came to 38.7 ± 5.3 µM. For the same molecule, the solubility at 1 h in data set [2] amounted to 4.6 mg/mL.
`CCCCc1nc(Cl)c(C(=O)N[C@@H](CCCNC(=N)N)C(=O)OCCCCO[N+](=O)[O-])n1Cc1ccc(-c2ccccc2-c2nn[nH]n2)cc1` [EX. 13, (S)-4-(nitrooxy)butyl 2-(1-((2′-(2H-tetrazol-5-yl)biphenyl-4-yl)methyl)-2-butyl-4-chloro-1H-imidazole-5-carboxamido)-5-guanidinopentanoate]: the EC50 in data set [1] turned out to be 30.6 ± 4.7 µM.
For the molecule `CCCCc1nc(Cl)c(C(=O)O)n1Cc1ccc(-c2ccccc2-c2nn[nH]n2)cc1` [EXP 3174, 2-butyl-4-chloro-1-{[2′-(1H-tetrazol-5-yl)biphenyl-4-yl]methyl}-1H-imidazole-5-carboxylic acid, reference compound], in data set [3], the “Δ Systolic blood pressure (mmHg) 6 hrs” value is on record as −5 mmHg and the “Δ Systolic blood pressure (mmHg) 24 hrs” value is given as 2 mmHg. Moreover, in data set [1], the “EC50 (μM) ± sem” value is recorded as “no effect”.
For `CCCCc1nc(Cl)c(CO)n1Cc1ccc(-c2ccccc2-c2nn[nH]n2)cc1` [Losartan, reference compound], in data set [1], the “EC50 (μM) ± sem” value is reported as “no effect”.
